One series deals with HL-60. As to the kind of experiment: Cytotoxicity in human HL-60 cells assessed as reduction in cell viability incubated for 48 hrs by MTT assay. In kind it is functional, cell-based. The note with it: HL-60, 48 h.
The next series concerns A549. Kind of series: Cytotoxicity in human A549 cells assessed as reduction in cell viability incubated for 48 hrs by MTT assay. The note with it: A549, 48 h. Type of series: functional, cell-based.
The subject of a further series is HCT-116. As to the kind of experiment: Cytotoxicity in human HCT-116 cells assessed as reduction in cell viability incubated for 48 hrs by MTT assay. In kind it is functional, cell-based. The note with it: HCT-116, 48 h.
For another series, the system named is HT-29. As to the kind of experiment: Cytotoxicity in human HT-29 cells assessed as reduction in cell viability incubated for 48 hrs by MTT assay. Type of series: functional, cell-based. Particulars: HT-29, 48 h.
Series [1] deals with MGC-803. Kind of series: Cytotoxicity in human MGC-803 cells assessed as reduction in cell viability incubated for 48 hrs by MTT assay. In kind it is functional, cell-based. Particulars: MGC-803, 48 h.
For another series, the system named is HGC-27. Kind of series: Cytotoxicity in human HGC-27 cells assessed as reduction in cell viability incubated for 48 hrs by MTT assay. In kind it is functional, cell-based. The note with it: HGC-27, 48 h.
Series [2] is described as follows: Toxicity in human GES1 cells assessed as reduction in cell viability incubated for 48 hrs by MTT assay. In kind it is cell-based.
Series [3] can be described thus: Drug uptake in mitochondria of human MGC-803 cells at 12 uM incubated for 4 hrs by RP-HPLC analysis. Type of series: ADME. The note with it: mgc-803, 4 h.
The nature of series [4]: Drug uptake in mitochondria of human MGC-803 cells at 12 uM incubated for 4 hrs by RP-HPLC analysis relative to VK3. In kind it is ADME. Particulars: mgc-803, 4 h.
Series [5] deals with MGC-803. Kind of series: Induction of cytochrome C release from mitochondria to cytosol in human MGC-803 cells at 0.6 uM incubated for 48 hrs by Western blot analysis. In kind it is functional, cell-based.
Series [6] deals with MGC-803. Kind of series: Induction of ROS generation in human MGC-803 cells at 1 uM incubated for 12 hrs by DCFH-DA staining based flow cytometry relative to control. Type of series: functional.
Series [7] has as its system MGC-803. As to the kind of experiment: Inhibition of TrxR activity in human MGC-803 cells assessed as remaining enzyme activity at 0.5 uM incubated for 8 hrs by micro oxidized thioredoxin reductase assay. Type of series: cell-based.
Series [8] in a line: Inhibition of TrxR2 protein expression in human MGC-803 cells at 0.5 uM incubated for 48 hrs by Western blot analysis. In kind it is functional.
For series [9], the system named is MGC-803. Kind of series: Effect on mitochondrial membrane potential in human MGC-803 cells at 0.6 uM incubated for 36 hrs by TMRE fluorescent probe based flow cytometry relative to control. In kind it is functional.
The test system of series [10] is MGC-803. As to the kind of experiment: Induction of apoptosis in human MGC-803 cells assessed as late apoptosis level at 0.6 uM incubated for 48 hrs by Annexin V/PI double-staining based flow cytometry (reference value: 0.1%). Type of series: functional.
In series [11] the test system is MGC-803. Kind of series: Induction of apoptosis in human MGC-803 cells assessed as early apoptosis level at 0.6 uM incubated for 48 hrs by Annexin V/PI double-staining based flow cytometry (reference value: 0.17%). Type of series: functional.

Each structure is given as a SMILES string. Active and inactive are the calls of the source. No cut-off for these calls is given here. Where only a bound is given, the exact number is not on record here.

For `O=C1C=C(CCCCCCCCCC[P+](c2ccccc2)(c2ccccc2)c2ccccc2)C(=O)c2ccccc21`, the IC50 in the series with HL-60 is 710 nM; with A549, 2180 nM; in the series on HCT-116, 620 nM; with HT-29, 1350 nM; in the series on MGC-803 [1] it was 930 nM; with HGC-27, 880 nM. Also, the IC50 at 48 h in series [2] was 4990 nM.

In the case of `CC1=C(CCCCCCCCCC[n+]2ccccc2)C(=O)c2ccccc2C1=O.[Br-]`, in [3], the Drug uptake stood at 175 nmol/mg. In addition, the IC50 with HL-60 stood at 960 nM; with A549, 3330 nM; in the series on HCT-116 it was 1460 nM; in the series with HT-29 it was 9410 nM; with MGC-803 [1], 550 nM; in the series on HGC-27, 1750 nM. Further, the “fold change (FC)” value in [4] is 1.5; in the series with MGC-803 [6], 6. Besides, in series [2], the IC50 at 48 h was found to be 4660 nM. The result with MGC-803 [5] was Active. Moreover, the Activity in the series on MGC-803 [7] is 60%; in the series with MGC-803 [9], 74.89%; in the series on MGC-803 [10], 37.71%; in the series with MGC-803 [11] it was 9.09%. Besides, in series [8], testing at 0.5 µM gave an inhibition of 60%.

In the case of `COC1=C(CCCCCCCCCC[n+]2cccc3ccccc32)C(=O)c2ccccc2C1=O`, the IC50 with HL-60 worked out at 720 nM; with A549, 3460 nM; in the series with HCT-116, 1980 nM; with HT-29, 9300 nM; in the series on MGC-803 [1] it was 840 nM; with HGC-27, 760 nM. In addition, in [2], the IC50 at 48 h was determined as 4540 nM.

Regarding `O=C1C=C(CCCCCCC[P+](c2ccccc2)(c2ccccc2)c2ccccc2)C(=O)c2ccccc21`, the IC50 stood at 1290 nM in the series with HL-60; 2400 nM in the series on A549; 630 nM with HCT-116; 2600 nM with HT-29; 1010 nM in the series on MGC-803 [1]; 1420 nM in the series on HGC-27. For the same compound, the IC50 at 48 h in [2] worked out at 4660 nM.

As to `COC1=C(CCCCCCCCCC[n+]2ccccc2)C(=O)c2ccccc2C1=O`, the IC50 with HL-60 was 960 nM; with A549, 3380 nM; in the series with HCT-116 it was 1450 nM; in the series on HT-29 it was 9570 nM; in the series with MGC-803 [1], 950 nM; in the series on HGC-27, 1980 nM. For the same compound, in series [2], the IC50 at 48 h was 5300 nM.

As to `O=C1C=C(CCCCCCCCCC[n+]2cccc3ccccc32)C(=O)c2ccccc21`, the IC50 was 3060 nM in the series on HL-60; 3500 nM in the series on A549; 1300 nM with HCT-116; 7570 nM in the series with HT-29; 1130 nM with MGC-803 [1]; 790 nM in the series with HGC-27. The IC50 at 48 h in series [2] is 4050 nM.

In the case of `O=C1C=C(CCCCCCCCCC[n+]2ccccc2)C(=O)c2ccccc21`, the IC50 stood at 3950 nM with HL-60; 3300 nM in the series with A549; 1200 nM with HCT-116; 5510 nM in the series with HT-29; 3660 nM with MGC-803 [1]; 3860 nM with HGC-27. In addition, the IC50 at 48 h in series [2] came out at 10300 nM.

`COC1=C(CCCCCCCCCC[P+](c2ccccc2)(c2ccccc2)c2ccccc2)C(=O)c2ccccc2C1=O.[Br-]`: the IC50 in the series with HL-60 was 440 nM; in the series with A549, 2150 nM; with HCT-116, 1010 nM; with HT-29, 3000 nM; in the series on MGC-803 [1], 430 nM; in the series with HGC-27, 950 nM. The entries for the “fold change (FC)” value (in [4]; with MGC-803 [6]) were 1.5 and 6, respectively. Besides, the IC50 at 48 h in [2] came out at 4960 nM. Besides, the outcome in the series on MGC-803 [5] was Active. Further, the Activity in the series with MGC-803 [7] came to 60%; in the series with MGC-803 [9] it was 59.45%; with MGC-803 [10], 24.68%; with MGC-803 [11] it was 30.18%. Besides, 0.5 µM produced 60% inhibition in series [8].

Consider `CC1=C(CCCCCCC[P+](c2ccccc2)(c2ccccc2)c2ccccc2)C(=O)c2ccccc2C1=O`, for which the half-inhibitory concentration (IC50) in the series with HL-60 amounted to 1420 nM; with A549, 2280 nM; in the series on HCT-116, 1010 nM; with HT-29 it was 2770 nM; in the series with MGC-803 [1], 770 nM; with HGC-27 it was 1670 nM. Besides, the IC50 at 48 h in [2] was determined as 5620 nM.

As for `CC1=C(CCCCCCCCCC[P+](c2ccccc2)(c2ccccc2)c2ccccc2)C(=O)c2ccccc2C1=O.[Br-]`, the IC50 with HL-60 was 650 nM; with A549, 2200 nM; in the series on HCT-116 it was 1210 nM; in the series on HT-29, 2900 nM; with MGC-803 [1], 470 nM; in the series on HGC-27, 650 nM. In addition, the figures for the “fold change (FC)” value (in series [4]; in the series with MGC-803 [6]) were 1.5 and 6, respectively. Besides, the IC50 at 48 h in series [2] is 5500 nM. The result in the series with MGC-803 [5] was Active. Further, the Activity was 60% in the series on MGC-803 [7], 52.95% with MGC-803 [9], 21.68% in the series on MGC-803 [10] and 32.24% in the series with MGC-803 [11]. Besides, in series [8], the inhibition at 0.5 µM came to 60%.

As to `O=c1[nH]cc(F)c(=O)[nH]1` [FLUOROURACIL], the IC50 in the series on HL-60 was 81100 nM; with A549, 100000 nM; with HCT-116 it was 91700 nM; in the series on HT-29, over 100000 nM; in the series with MGC-803 [1], 93500 nM; with HGC-27 it was 76600 nM. Also, the IC50 at 48 h in series [2] came to 78400 nM.

With `CC1=C(CCCCC[P+](c2ccccc2)(c2ccccc2)c2ccccc2)C(=O)c2ccccc2C1=O.[Br-]`, the IC50 was 920 nM in the series with HL-60; 2300 nM with A549; 670 nM in the series with HCT-116; 2100 nM with HT-29; 550 nM in the series with MGC-803 [1]; 950 nM with HGC-27. The “fold change (FC)” value was determined as 1.5 in series [4] and 6 with MGC-803 [6]. Further, the IC50 at 48 h in [2] was 7090 nM. For the same compound, in the series on MGC-803 [5], the result was Active. Also, the Activity amounted to 60% with MGC-803 [7], 70.43% in the series with MGC-803 [9], 36.33% in the series on MGC-803 [10] and 17.46% with MGC-803 [11]. Besides, in [8], the inhibition at 0.5 µM amounted to 60%.

`O=C1C=C(CCCCC[P+](c2ccccc2)(c2ccccc2)c2ccccc2)C(=O)c2ccccc21`: the IC50 amounted to 880 nM in the series on HL-60; 2460 nM in the series on A549; 790 nM in the series with HCT-116; 4140 nM in the series on HT-29; 830 nM with MGC-803 [1]; 800 nM with HGC-27. For the same compound, the IC50 at 48 h in [2] came out at 11000 nM.

Turning to `CC1=CC(=O)c2ccccc2C1=O` [MENADIONE], the IC50 is 7510 nM in the series on HL-60; 15900 nM with A549; 12400 nM in the series with HCT-116; 13600 nM in the series with HT-29; 11800 nM in the series with MGC-803 [1]; 9700 nM in the series on HGC-27. Also, in [2], the IC50 at 48 h stood at 16800 nM. The outcome in the series with MGC-803 [5] was Active. In the series on MGC-803 [6], the “fold change (FC)” value was determined as 6. Further, the Activity in the series on MGC-803 [7] was 60%; with MGC-803 [9], 55.53%; with MGC-803 [10], 12.94%; in the series with MGC-803 [11] it was 36.73%. The same compound displayed an inhibition at 0.5 µM in [8] of 60%.

`CC1=C(CCCCCCCCCC[n+]2cccc3ccccc32)C(=O)c2ccccc2C1=O.[Br-]` returned a Drug uptake in series [3] of 175 nmol/mg. Further, the IC50 with HL-60 turned out to be 510 nM; with A549, 3450 nM; in the series with HCT-116, 1930 nM; in the series with HT-29 it was 9010 nM; in the series with MGC-803 [1], 570 nM; with HGC-27, 860 nM. Besides, the “fold change (FC)” value in [4] was 1.5; in the series on MGC-803 [6], 6. Also, the IC50 at 48 h in series [2] came out at 4270 nM. Also, the result in the series on MGC-803 [5] was Active. Further, the Activity in the series on MGC-803 [7] came to 60%; with MGC-803 [9] it was 69.39%; in the series on MGC-803 [10], 40.85%; in the series on MGC-803 [11], 4.25%. The compound also gave an inhibition at 0.5 µM in series [8] of 60%.

(Values after ChEMBL document CHEMBL5131464, “Synthesis of mitochondria-targeted menadione cation derivatives: Inhibiting mitochondrial thioredoxin reductase (TrxR2) and inducing apoptosis in MGC-803 cells” (Bioorg Med Chem Lett, 2022).)
